Measurements reported in US9370507B2, “Pyridonyl guanidine F1F0-ATPase inhibitors and therapeutic uses thereof” (Lycera Corporation, priority 2010, dated 2016).

Columns and labels:
Ramos cells = experiment: Cytotoxicity in Ramos cells; format: cell-based; conditions: Homo sapiens, read-out: Ramos Cell EC50
Procedure: (§1) The compounds listed in Table 4 were tested for activity against F1F0-ATPase by measuring the ability of the compounds to inhibit ATP synthesis. In addition, the compounds were assessed for cytotoxicity in Ramos cells Inhibition of F1F0-ATPase activity in synthesizing ATP and cytotoxicity in Ramos cells were measured according to the procedures described in K. M. Johnson et al. Chemistry & Biology 2005, 12, 485-496.

F1F0-ATPase = target: T1, F1F0-ATPase (Bos taurus, UniProt P13621); experiment: Inhibition of F1F0-ATPase activity in synthesizing ATP; format: biochemical; conditions: inhibition of ATP synthesis; read-out: ATP Syn IC50
T1 construct: from tissue
Procedure: as §1

Row | SMILES | IC50 (F1F0-ATPase) | EC50 (Ramos cells)
1 | CC1(N/C(=N\C(=O)c2ccc(C(F)(F)F)cc2)Nc2cccc(O)n2)CCC1 [Compound A-47] | < 10 µM | < 10 µM
2 | CCC(C)(C)N/C(=N/C(=O)c1ccc(Cl)cc1)Nc1cccc(O)n1 [Compound A-102] | < 10 µM | < 10 µM
3 | O=C(/N=C(\Nc1cccc(O)n1)NC1CCCOC1)c1ccc(C(F)(F)F)cc1 (centres unmarked) [Compound A-93] | < 10 µM | < 10 µM
4 | CC(C)(C)N/C(=N\C(=O)c1ccc(Cl)c(F)c1)Nc1cccc(O)n1 [Compound A-44] | < 10 µM | < 10 µM
5 | CC(C)(C)N/C(=N/C(=O)c1ccc(C(F)(F)F)cc1)Nc1cccc(NS(=O)(=O)CC(F)(F)F)n1 [Compound A-129] | < 10 µM | < 10 µM
6 | O=C(N/C(=N\c1cccc(O)n1)Nc1ccc(F)c(Cl)c1)c1ccc(F)c(F)c1 [Compound A-9] | > 10 µM | > 10 µM
7 | O=C(/N=C(\Nc1cccc(O)n1)NC1CCOCC1)c1ccc(C(F)(F)F)cc1 [Compound A-92] | < 10 µM | < 10 µM
8 | O=C(/N=C(/Nc1cccc(C2CC2)c1)Nc1cccc(O)n1)c1ccc(C(F)(F)F)cc1 [Compound A-26] | < 10 µM | < 10 µM
9 | O=C(/N=C(/Nc1cccc(O)n1)NC1CC1)c1ccc(F)c(F)c1 [Compound A-49] | > 10 µM | > 10 µM
10 | O=C(/N=C(\Nc1cccc(NS(=O)(=O)CC(F)(F)F)n1)NC(C1CC1)C1CC1)c1ccc(Cl)cc1 [Compound A-127] | < 10 µM | < 10 µM
11 | O=C(/N=C(\Nc1cccc(O)n1)NC1CCCC1)c1ccc(Cl)cc1 [Compound A-101] | < 10 µM | > 10 µM
12 | O=C(/N=C(/Nc1cccc(C(F)(F)F)c1)Nc1cccc(O)n1)c1ccc(F)c(F)c1 [Compound A-3] | < 10 µM | < 10 µM
13 | COCC(C)N/C(=N/C(=O)c1ccc(Cl)cc1)Nc1cccc(O)n1 (centres unmarked) [Compound A-106] | > 10 µM | > 10 µM
14 | O=C(/N=C(\Nc1cccc(O)n1)NC1CCC(F)(F)CC1)c1ccc(C(F)(F)F)cc1 [Compound A-30] | < 10 µM | < 10 µM
15 | O=C(/N=C(/Nc1cccc(C(F)(F)F)c1)Nc1cccc(Br)n1)c1cccc(C(F)(F)F)c1 [Compound A-120] | > 10 µM | > 10 µM
16 | O=C(/N=C(/Nc1cccc(Cl)c1)Nc1cccc(O)n1)c1cccc(Cl)c1 [Compound A-19] | < 10 µM | < 10 µM

Continued, in another order:

Row | IC50 (F1F0-ATPase) | SMILES | EC50 (Ramos cells)
17 | < 10 µM | CS(=O)(=O)Nc1cccc(N/C(=N\C(=O)c2ccc(C(F)(F)F)cc2)NCc2ccccc2C(F)(F)F)n1 [Compound A-114] | < 10 µM
18 | < 10 µM | CS(=O)(=O)Nc1cccc(N/C(=N\C(=O)c2ccc(C(F)(F)F)cc2)NCC(F)(F)F)n1 [Compound A-122] | > 10 µM
19 | < 10 µM | O=C(/N=C(/NCc1ccc(F)c(F)c1)Nc1cccc(O)n1)c1ccc(Cl)cc1 [Compound A-80] | < 10 µM
20 | < 10 µM | O=C(/N=C(/NCc1ccc(Cl)cc1F)Nc1cccc(NS(=O)(=O)c2ccccn2)n1)c1ccc(Cl)cc1 [Compound A-137] | > 10 µM
21 | < 10 µM | O=C(/N=C(/NCc1ccc(F)c(Cl)c1)Nc1cccc(O)n1)c1ccc(C(F)(F)F)cc1 [Compound A-28] | < 10 µM
22 | > 10 µM | CN(/C(=N\C(=O)c1ccc(F)c(F)c1)Nc1cccc(O)n1)c1ccc(F)c(Cl)c1 [Compound A-10] | > 10 µM
23 | < 10 µM | CS(=O)(=O)Nc1cccc(N/C(=N\C(=O)c2ccc(C(F)(F)F)cc2)Nc2cc(F)cc(Cl)c2)n1 [Compound A-123] | < 10 µM
24 | < 10 µM | O=C(/N=C(/NCc1ccccc1Cl)Nc1cccc(O)n1)c1ccc(Cl)cc1 [Compound A-87] | < 10 µM
25 | < 10 µM | CS(=O)(=O)Nc1cccc(N/C(=N\C(=O)c2ccc(Cl)c(F)c2)NCc2ccc(F)c(Cl)c2)n1 [Compound A-121] | < 10 µM
